Measured values as given in ChEMBL document CHEMBL6134803, “ZLDI-8 facilitates pexophagy by ROS-mediated activation of TFEB and ATM in HeLa cells” (Bioorg Med Chem Lett, 2025).
The source made the active and inactive calls. No cut-off for these calls is given here.

Key:
Type in all cases: functional, cell-based
HeLa [1] = assay: Induction of TFEB nuclear translocation in human HeLa cells assessed as decrease in TFEB phoshorylation at 5 uM cotreated with ROS scavenger NAC measured at 48 hrs by Western blot analysis
HeLa [2] = assay: Induction of autophagic flux in human HeLa cells at 5 uM preincubated for 36 hrs followed by addition of Bafilomycin A1 and measured after 12 hrs by Western blot analysis; conditions: time 48.0 hrs
HeLa [3] = assay: Induction of TFEB nuclear translocation in human HeLa cells assessed as decrease in TFEB phoshorylation at 5 uM measured at 48 hrs by Western blot analysis
HeLa [4] = assay: Induction of autophagy in human HeLa cells assessed as reduction in peroxisomes number in mitochondria at 5 uM incubated for 48 hrs in presence of TOMM20 antibody by fluorescence microscopic analysis
HeLa [5] = assay: Induction of pexophagy in ATG5 knockout human HeLa cells assessed as decrease in LC3I protein expression at 5 uM incubated for 48 hrs by Western blot analysis
HeLa [6] = assay: Induction of pexophagy in human HeLa cells expressing HyPer-PTS1 assessed as reduction in peroxisome numbers at 5 uM incubated for 48 hrs in presence of ROS scavenger NAC by immunostaining based analysis
HeLa [7] = assay: Induction of pexophagy in wild-type human HeLa cells assessed as reduction in peroxisomes at 5 uM incubated for 48 hrs by immunostaining based analysis
HeLa [8] = assay: Induction of pexophagy in human HeLa cells assessed as reduction in peroxisomes at 5 uM incubated for 48 hrs treated with Bafilomycin A1 by immunostaining based analysis
HeLa [9] = assay: Induction of pexophagy in wild-type human HeLa cells assessed as […] in LC3II protein expression at 5 uM incubated for 48 hrs by Western blot analysis
HeLa [10] = assay: Induction of TFEB nuclear translocation in human HeLa cells expressing EGFP-TFEB at 5 uM measured at 48 hrs in presence of ROS scavenger NAC by fluorescence microscopic analysis
HeLa [11] = assay: Induction of pexophagy in human HeLa cells assessed as increase in ATM phosphorylation at serine 1981 residue at 5 uM measured at 48 hrs by Western blot analysis
TERT-RPE1 = assay: Induction of pexophagy in human TERT-RPE1 cells expressing mRFP-EGFP-SKL assessed as increase in red-only puncta at 5 uM incubated for 48 hrs by fluorescence microscopic analysis
HeLa [12] = assay: Induction of pexophagy in human HeLa cells expressing HyPer-PTS1 assessed as reduction in peroxisome numbers at 5 uM incubated for 48 hrs by immunostaining based analysis
HeLa [13] = assay: Induction of pexophagy in ATG5 knockout human HeLa cells assessed as reduction in peroxisomes at 5 uM incubated for 48 hrs by immunostaining based analysis
HeLa [14] = assay: Induction of pexophagy in human HeLa cells assessed as reduction in peroxisome numbers at 5 uM incubated for 48 hrs in presence of anti-ABCD3 antibody by immunostaining based analysis
HeLa [15] = assay: Induction of autophagy in human HeLa cells assessed as reduction in peroxisomes number in endoplasmic reticulum at 5 uM incubated for 48 hrs in presence of P4HB antibody by fluorescence microscopic analysis
HeLa [16] = assay: Induction of pexophagy in wild-type human HeLa cells assessed as decrease in LC3I protein expression at 5 uM incubated for 48 hrs by Western blot analysis
HeLa [17] = assay: Induction of pexophagy in ATG5 knockout human HeLa cells assessed as […] in LC3II protein expression at 5 uM incubated for 48 hrs by Western blot analysis
HeLa [18] = assay: Induction of pexophagy in human HeLa cells expressing HyPer-PTS1 assessed as increase in peroxisomal ROS levels at 5 uM incubated for 48 hrs in presence of ROS scavenger NAC by fluorescence based analysis
HeLa [19] = assay: Induction of pexophagy in human HeLa cells at 5 uM measured at 48 hrs by immunostaining based analysis
HeLa [20] = assay: Induction of pexophagy in human HeLa cells assessed as increase in ATM phosphorylation at serine 1981 residue at 5 uM cotreated with ROS scavenger NAC measured at 48 hrs by Western blot analysis
HeLa [21] = assay: Induction of pexophagy in human HeLa cells at 5 uM cotreated with KU55933 measured at 48 hrs by immunostaining based analysis
HeLa [22] = assay: Induction of autophagy in human HeLa cells assessed as reduction in peroxisomes number golgi apparatus at 5 uM incubated for 48 hrs in presence of FTCD antibody by fluorescence microscopic analysis
HeLa [23] = assay: Induction of pexophagy in wild-type human HeLa cells assessed as decrease in ABCD3 protein expression at 5 uM incubated for 48 hrs by Western blot analysis
HeLa [24] = assay: Induction of pexophagy in ATG5 knockout human HeLa cells assessed as decrease in ABCD3 protein expression at 5 uM incubated for 48 hrs by Western blot analysis
HeLa [25] = assay: Induction of pexophagy in human HeLa cells assessed as increase in ROS levels at 5 uM incubated for 48 hrs in presence of ROS scavenger NAC by DCFH-DA staining based assay

SMILES: Cc1ccc(OCCn2c(C)c(C=C3C(=O)NC(=S)NC3=O)c3ccccc32)c(C)c1
- Activity (HeLa [1]): inactive
- Activity (HeLa [2]): Active
- Activity (HeLa [3]): Active
- Activity (HeLa [4]): Active
- Activity (HeLa [5]): inactive
- Activity (HeLa [6]): inactive
- Activity (HeLa [7]): Active
- Activity (HeLa [8]): Active
- Activity (HeLa [9]): Active
- Activity (HeLa [10]): Active
- Activity (HeLa [11]): Active
- Activity (TERT-RPE1): Active
- Activity (HeLa [12]): Active
- Activity (HeLa [13]): inactive
- Activity (HeLa [14]): Active
- Activity (HeLa [15]): Active
- Activity (HeLa [16]): Active
- Activity (HeLa [17]): inactive
- Activity (HeLa [18]): Active
- Activity (HeLa [19]): Active
- Activity (HeLa [20]): inactive
- Activity (HeLa [21]): Active
- Activity (HeLa [22]): Active
- Activity (HeLa [23]): Active
- Activity (HeLa [24]): inactive
- Activity (HeLa [25]): Active
